Assay results published in paper PMC11376277, “Crystallographic fragment screen of the c-di-AMP-synthesizing enzyme CdaA from Bacillus subtilis” (Acta Crystallographica Section F: Structural Biology …, 2024).

Biological target: T1, EfCdaA (Enterococcus faecium, UniProt Q3Y0C9)
T1 construct: gene dacA; N-terminally truncated soluble DAC domain; codon-optimized synthetic DNA, pET-28a, E. coli Rosetta (DE3); tag cut with PreScission
T1 sequence (Q3Y0C9 121-269): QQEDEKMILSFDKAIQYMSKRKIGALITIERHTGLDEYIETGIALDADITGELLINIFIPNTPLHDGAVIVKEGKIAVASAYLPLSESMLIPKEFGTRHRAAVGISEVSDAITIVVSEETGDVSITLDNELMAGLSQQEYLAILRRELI
Experiment: ITC, […] binding model
Conditions: 25 C, pH 7.5, 20 mM Tris-HCl, 300 mM NaCl, 5% DMSO, 10 mM MgCl2

SMILES	Kd [µM]
Nc1ncnc2c1ncn2[C@@H]1O[C@H](COP(=O)(O)OP(=O)(O)OP(=O)(O)O)[C@@H](O)[C@H]1O [ATP]	237
CC(C)OC(=O)OCOP(=O)(CO[C@H](C)Cn1cnc2c(N)ncnc21)OCOC(=O)OC(C)C [tenofovir disoproxil]	7.91
